According to paper PMC8694051 (Proceedings of the National Academy of Sciences of the …, 2021):
Residues, ends and D or L forms follow the SMILES beside them.

Experiments:
[1] = molecular target: Cathepsin G (Homo sapiens, UniProt P08311); test: Protease profiling panel, 10-dose IC50; assay type: biochemical
[2] = molecular target: Chymase (Homo sapiens, UniProt P23946); test: Protease profiling panel, 10-dose IC50; assay type: biochemical
[3] = molecular target: Caspase 14 (Homo sapiens, UniProt P31944); test: Protease profiling panel, 10-dose IC50; assay type: biochemical
Caspase 14, sequence (P31944 6-242, species assumed): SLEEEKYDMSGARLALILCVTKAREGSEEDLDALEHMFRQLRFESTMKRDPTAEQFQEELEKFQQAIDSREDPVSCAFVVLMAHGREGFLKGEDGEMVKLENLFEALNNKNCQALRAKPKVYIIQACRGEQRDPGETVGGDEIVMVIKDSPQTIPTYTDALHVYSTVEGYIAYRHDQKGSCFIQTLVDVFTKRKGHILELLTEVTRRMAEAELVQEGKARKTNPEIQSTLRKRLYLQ

[4] = molecular target: FVIIa (Homo sapiens, UniProt P08709); test: Protease profiling panel, 10-dose IC50; assay type: biochemical
FVIIa, sequence (P08709 213-466 limits assumed): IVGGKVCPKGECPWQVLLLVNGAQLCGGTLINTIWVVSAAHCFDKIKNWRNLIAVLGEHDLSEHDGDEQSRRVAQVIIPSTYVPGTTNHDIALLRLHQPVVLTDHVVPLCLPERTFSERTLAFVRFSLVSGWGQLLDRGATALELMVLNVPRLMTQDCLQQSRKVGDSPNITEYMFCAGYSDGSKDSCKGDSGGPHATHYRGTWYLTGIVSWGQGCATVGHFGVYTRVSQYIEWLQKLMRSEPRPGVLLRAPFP
FVIIa, sequence (P08709 61-212 partner limits assumed): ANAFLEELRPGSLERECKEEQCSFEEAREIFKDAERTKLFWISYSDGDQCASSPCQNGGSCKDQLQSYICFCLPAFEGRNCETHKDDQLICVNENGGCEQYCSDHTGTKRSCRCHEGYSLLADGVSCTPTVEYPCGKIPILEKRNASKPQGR

[5] = molecular target: Factor Xa (Homo sapiens, UniProt P00742); test: Factor Xa enzyme inhibition (published assays); assay type: biochemical
Factor Xa, sequence (P00742 235-488 limits assumed): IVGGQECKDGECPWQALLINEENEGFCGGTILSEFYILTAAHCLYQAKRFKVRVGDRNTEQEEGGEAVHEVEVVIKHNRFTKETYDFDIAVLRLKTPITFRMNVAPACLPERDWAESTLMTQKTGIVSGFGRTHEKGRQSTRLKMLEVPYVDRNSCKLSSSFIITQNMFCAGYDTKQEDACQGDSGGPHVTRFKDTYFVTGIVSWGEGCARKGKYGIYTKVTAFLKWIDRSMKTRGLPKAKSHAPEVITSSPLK
Factor Xa, sequence (P00742 41-179 partner limits assumed): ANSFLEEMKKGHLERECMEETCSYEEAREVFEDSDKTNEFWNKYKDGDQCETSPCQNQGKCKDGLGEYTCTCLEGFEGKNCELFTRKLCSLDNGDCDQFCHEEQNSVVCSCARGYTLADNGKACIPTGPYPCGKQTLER

[6] = in vitro; conditions: human, plasma
[7] = molecular target: Thrombin (Homo sapiens, UniProt P00734); test: Thrombin enzyme inhibition (published assays); assay type: biochemical
[8] = in vitro; conditions: mouse, plasma
[9] = system: wild-type SARS-CoV-2; test: microbe, parasite or virus in culture; assay type: cell-based; conditions: Severe acute respiratory syndrome coronavirus 2, Calu-3, 72 h, read-out: SARS-CoV-2 Wild-type Calu-3 IC50 (nM)
[10] = molecular target: T1, HGFA (Homo sapiens, UniProt Q04756); test: HGFA enzyme inhibition (published assays); assay type: biochemical
T1 sequence (Q04756 373-655): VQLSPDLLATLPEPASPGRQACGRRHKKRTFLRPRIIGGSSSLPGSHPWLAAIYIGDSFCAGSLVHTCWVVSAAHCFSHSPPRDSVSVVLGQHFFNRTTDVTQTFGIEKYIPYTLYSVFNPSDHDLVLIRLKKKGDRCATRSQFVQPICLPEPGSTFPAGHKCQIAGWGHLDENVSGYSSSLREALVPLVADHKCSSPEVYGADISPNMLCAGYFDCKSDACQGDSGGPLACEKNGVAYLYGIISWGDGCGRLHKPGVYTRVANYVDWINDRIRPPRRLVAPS

[11] = system: VSV-SARS-CoV-2-Spike protein Pseudotype virus; test: microbe, parasite or virus in culture; assay type: cell-based; conditions: Vesicular stomatitis virus, Calu-3, read-out: VSV-SARS-CoV-2 Calu-3 EC50 (nM)
[12] = system: VSV-MERS; test: microbe, parasite or virus in culture; assay type: cell-based, MERS-CoV; conditions: Middle East respiratory syndrome-related coronavirus, Calu-3, read-out: MERS VSV pseudotype Calu-3 EC50 (nM)
[13] = molecular target: T2, Matriptase (Homo sapiens, UniProt Q9Y5Y6); test: Matriptase enzyme inhibition (published assays); assay type: biochemical
T2 sequence (Q9Y5Y6 1-855): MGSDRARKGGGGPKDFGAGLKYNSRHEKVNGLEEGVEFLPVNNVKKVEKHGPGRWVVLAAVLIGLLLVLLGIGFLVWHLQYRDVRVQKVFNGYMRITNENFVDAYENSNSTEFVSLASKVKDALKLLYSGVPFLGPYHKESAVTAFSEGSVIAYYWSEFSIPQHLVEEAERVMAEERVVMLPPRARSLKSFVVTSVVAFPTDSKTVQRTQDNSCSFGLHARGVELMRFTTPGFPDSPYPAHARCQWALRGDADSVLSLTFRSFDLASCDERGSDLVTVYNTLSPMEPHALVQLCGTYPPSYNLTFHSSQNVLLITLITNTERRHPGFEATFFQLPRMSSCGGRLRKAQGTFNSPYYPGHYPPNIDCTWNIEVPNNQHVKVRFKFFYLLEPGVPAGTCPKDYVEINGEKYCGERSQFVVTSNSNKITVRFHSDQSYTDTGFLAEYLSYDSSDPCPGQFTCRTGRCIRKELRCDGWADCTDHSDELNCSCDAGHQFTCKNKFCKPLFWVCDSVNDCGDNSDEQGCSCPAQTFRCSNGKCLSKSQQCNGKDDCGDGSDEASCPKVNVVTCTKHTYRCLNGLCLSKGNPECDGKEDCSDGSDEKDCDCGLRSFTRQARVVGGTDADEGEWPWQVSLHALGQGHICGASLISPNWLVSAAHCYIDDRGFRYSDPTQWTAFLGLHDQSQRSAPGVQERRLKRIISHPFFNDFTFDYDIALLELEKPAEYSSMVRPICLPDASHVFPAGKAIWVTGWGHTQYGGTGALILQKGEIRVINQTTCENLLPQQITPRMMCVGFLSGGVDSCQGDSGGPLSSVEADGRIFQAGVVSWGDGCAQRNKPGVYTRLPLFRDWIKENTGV

Chymase, sequence (P23946 22-247, species assumed): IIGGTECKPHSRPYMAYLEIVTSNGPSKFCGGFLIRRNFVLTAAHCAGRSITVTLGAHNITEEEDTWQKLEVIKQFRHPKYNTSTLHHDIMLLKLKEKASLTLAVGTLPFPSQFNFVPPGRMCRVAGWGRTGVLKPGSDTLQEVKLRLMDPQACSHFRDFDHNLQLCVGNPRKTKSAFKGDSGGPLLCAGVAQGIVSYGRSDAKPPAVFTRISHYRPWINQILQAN
Cathepsin G, sequence (P08311 21-255, species assumed): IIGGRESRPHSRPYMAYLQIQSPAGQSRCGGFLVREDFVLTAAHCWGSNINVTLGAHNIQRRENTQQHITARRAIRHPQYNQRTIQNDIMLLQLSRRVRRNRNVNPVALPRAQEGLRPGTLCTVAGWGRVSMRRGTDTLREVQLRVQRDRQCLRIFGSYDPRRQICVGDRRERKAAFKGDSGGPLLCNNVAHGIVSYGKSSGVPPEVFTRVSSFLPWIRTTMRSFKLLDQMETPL

SMILES: CC(C)C[C@H](NC(=O)[C@@H](NC(=O)N[C@@H](Cc1ccccc1)C(=O)O)[C@@H]1CCN=C(N)N1)C(=O)N[C@H](C=O)Cc1ccccc1 [Chymostatin]
- IC50 [1]: 4040 nM
- IC50 [2]: 10.1 nM

SMILES: CC(=O)N[C@@H](Cc1c[nH]c2ccccc12)C(=O)N[C@@H](CCC(=O)O)C(=O)N[C@@H](Cc1cnc[nH]1)C(=O)N[C@H](C=O)CC(=O)O [WEHD-CHO] (Ac-WEHD-aldehyde)
- IC50 [3]: 68.2 nM

SMILES: N=C(N)c1ccc2nc(-c3cc(CC(=O)N[C@@H](CC(=O)O)C(=O)O)cc(-c4cc(S(N)(=O)=O)ccc4O)c3O)[nH]c2c1 [PCI 27483]
- IC50 [4]: 57.5 nM

SMILES: CC(=O)N[C@@H](CCC(N)=O)C(=O)N[C@@H](Cc1ccccc1)C(=O)N[C@@H](CCCNC(=N)N)C(=O)c1nc2ccccc2s1 [Compound 6, Ac-QFR-kbt]
- IC50 [5]: 1.4 nM
- half-life [6]: > 4.82 h
- IC50 [7]: > 20000 nM
- half-life [8]: > 4.82 h
- IC50 [9]: 105 nM
- IC50 [10]: 14 nM

SMILES: CN(C)C(=O)COC(=O)Cc1ccc(OC(=O)c2ccc(NC(=N)N)cc2)cc1 [Camostat, reference compound]
- EC50 [11]: 83 nM
- IC50 [5]: > 20000 nM
- EC50 [12]: 5 nM
- IC50 [10]: > 20000 nM
- IC50 [13]: 7 nM
